Legend:
rabbit aorta = test: In vitro vasorelaxing activity (aorta strip contracted with noradrenaline); conditions: Oryctolagus cuniculus, contraction induced by noradrenaline
Protocol: The vasorelaxing activity of the compounds of the invention was determined on rabbit aorta which had been contracted with noradrenaline, according to the method described in Eur. J. Pharmacol, 141, 195 (1987).
IC50 = concentration of active substance, expressed in mole/liter,
able to inhibit by 50% the contraction of the aorta "strip" induced by […]

[1] = system: Sprague Dawley anaesthetized rats; test: Vasopressine angina in the anaesthetized rat (in vivo antianginal activity); parameters: species or system Sprague Dawley rat; conditions: 3 mg/kg by gastric gavage, 1 hour before Arg-vasopressin i.v.
Protocol: The in vivo antianginal activity was evidenced on Sprague Dawley anaesthetized rats, weighing 350-400 g, operating according to the procedure of M. Leitold et al., Arzneim. Forsch. 36, 1454, 1986. The test was carried out administering the animal intravenously with 1 I. U./kg, equivalent to […] of Arg-vasopressin, which induces a coronary spasm which can be reproduced and evidenced electrocardiographycally with an increase in the amplitude of the T wave. The compounds of the invention were admininistered by gastric gavage at a dose of 3 mg/kg, 1 hour before administration of Argvasopressin. The antianginal effect was expressed as percent inhibition of the T wave increase versus controls.

| SMILES | IC50 (rabbit aorta) | Effect (percent inhibition of the T wave increase versus controls) [1] |
| --- | --- | --- |
| CC(=O)OC1c2ccccc2C(=O)N1CCO[N+](=O)[O-] (centres unmarked) [Example 2, 3-Acetoxy-2-(2-nitrooxyethyl)-1-oxoisoindolin] | 1.2 µM | – |
| CCCC(=O)OC1c2ccccc2C(=O)N1CCO[N+](=O)[O-] (centres unmarked) [Example 3] | 2.4 µM | -55.2% |

Further lines, with some results ahead:

| IC50 (rabbit aorta) | SMILES | Effect (percent inhibition of the T wave increase versus controls) [1] |
| --- | --- | --- |
| 1.3 µM | O=C1c2ccccc2C(O)N1CCO[N+](=O)[O-] (centres unmarked) [Example 1, 3-Hydroxy-2-(2-nitrooxyethyl)-1-oxoisoindolin] | -56.1% |
| 3.2 µM | O=C(OC1c2ccccc2C(=O)N1CCO[N+](=O)[O-])c1ccccc1 (centres unmarked) [Example 4, 3-Benzoyloxy-2-(5-nitrooxyethyl)-1-oxoisoindolin] | -34.5% |
| 13 µM | O=C1c2ccccc2C(O)N1CCCCCO[N+](=O)[O-] (centres unmarked) [Example 5, 3-Hydroxy-2-(5-nitrooxypentyl)-1-oxoisoindolin] | – |

Source: patent US5376673A, “Isoindoles having cardiovascular activity” (Italfarmaco S.p.A., priority 1991, dated 1994)
